Test results: patent US8466171B2, “Fused heterocyclic compounds useful as modulators of nuclear hormone receptor function” (Bristol-Myers Squibb Company, priority 2007, dated 2013)
Changes are numbered by the printed parent chain.

Legend:
immature castrated rats [1] = assay: Immature Rat Prostate Weight (IRPW) Assay; format: in vivo; settings: TP versus free T
Text: The activity of compounds of Formula (I) as AR antagonists can be investigated in an immature male rat model, as described in L. G. Hershberger et al., Proc. Soc.
Male sexual accessory organs, such as the prostate and seminal vesicles, play an important role in reproductive function. These glands are stimulated to grow and are maintained in size and secretory function by the continued presence of serum testosterone (T), which is the major serum androgen (>95%) produced by the Leydig cells in the testis under the control of the pituitary luteinizing hormone (LH) and follicle stimulating hormone (FSH). […] Adrenal androgens also contribute about 20% of total DHT in the rat prostate, compared to 40% of that in 65-year-old men. […] However, this is not a major pathway, since in both animals and humans, castration leads to almost complete involution of the prostate and seminal vesicles without concomitant adrenalectomy. […] […] […] Since the male sex organs are the tissues most responsive to modulation of the androgen activity, this model is used to determine the androgen dependent growth of the sex accessory organs in immature castrated rats.
Male immature rats (19-20 days old Sprague-Dawley, Harlan Sprague-Dawley) are castrated under metofane anesthesia. […] Experimental groups are as follows:
At the end of the 3-day treatment, the animals are sacrificed, and the ventral prostate weighed. […]

immature castrated rats [2] = settings: cited from earlier work; for EC50 (increase in organ weight): immature castrated rats, dosing for 3 days
wild type AR = target: T1, wild type AR (Homo sapiens, UniProt P10275); assay: AR Binding Assay (whole cell, MDA-MB-453, competition with [3H]-DHT); settings: MDA-MB-453 cells, competition with 2 nM [3H]-DHT, Cheng-Prusoff
T1 sequence (P10275 1-920 Q868H): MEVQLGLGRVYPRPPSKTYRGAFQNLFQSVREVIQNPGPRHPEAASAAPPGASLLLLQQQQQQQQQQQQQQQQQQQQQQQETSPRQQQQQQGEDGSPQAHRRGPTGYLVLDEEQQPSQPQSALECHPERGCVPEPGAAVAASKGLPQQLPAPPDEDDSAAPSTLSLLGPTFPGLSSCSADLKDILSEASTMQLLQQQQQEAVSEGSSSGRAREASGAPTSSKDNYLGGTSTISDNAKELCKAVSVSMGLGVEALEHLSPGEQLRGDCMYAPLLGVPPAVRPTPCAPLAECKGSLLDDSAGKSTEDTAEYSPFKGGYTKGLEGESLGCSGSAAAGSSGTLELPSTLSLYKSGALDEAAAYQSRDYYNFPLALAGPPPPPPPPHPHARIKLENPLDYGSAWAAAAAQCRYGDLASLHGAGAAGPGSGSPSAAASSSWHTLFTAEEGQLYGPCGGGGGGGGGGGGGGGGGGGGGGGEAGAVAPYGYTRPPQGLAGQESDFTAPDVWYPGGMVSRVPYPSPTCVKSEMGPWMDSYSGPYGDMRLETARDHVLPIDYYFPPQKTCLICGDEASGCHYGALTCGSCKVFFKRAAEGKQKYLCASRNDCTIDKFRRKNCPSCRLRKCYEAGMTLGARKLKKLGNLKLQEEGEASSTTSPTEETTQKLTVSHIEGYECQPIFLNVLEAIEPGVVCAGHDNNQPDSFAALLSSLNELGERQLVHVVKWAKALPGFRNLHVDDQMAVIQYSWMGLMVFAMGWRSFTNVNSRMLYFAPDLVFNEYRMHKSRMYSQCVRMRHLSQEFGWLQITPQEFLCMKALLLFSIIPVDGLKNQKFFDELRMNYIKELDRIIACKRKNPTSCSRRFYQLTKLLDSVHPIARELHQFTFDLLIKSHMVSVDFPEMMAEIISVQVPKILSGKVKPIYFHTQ
Protocol: For the whole cell binding assay, human breast adenocarcinoma MDA-MB-453 cells (American Type Culture Collection, Rockville, Md., ATCC #: HTB-131), expressing a functional endogenous wild type AR, are grown to near confluency in T-225 tissue culture flasks containing Dulbecco's Modified Eagle Medium (DMEM) (Mediatech CAT #45000-668) supplemented with 10% fetal bovine serum (FBS) (Invitrogen/GIBCO Life Science). In order to remove any endogenous ligand that might be complexed with the receptor in the cells, the tissue culture media is removed and the cells are incubated overnight at 37° C. in serum-free DMEM. The next day, cells are rinsed with magnesium and calcium free Phosphate Buffered Saline (PBS) (Invitrogen/GIBCO Life Science), harvested using Cell Stripper Buffer (Mediatech) and re-suspended in serum-free DMEM to achieve a final assay concentration of 4×10^5 cells/well of a 96-well assay plate. […] After the remaining media is removed, cells are washed three times with PBS and harvested onto UniFilter GF/B plates (PerkinElmer).
Two replicates are used for each sample. After 90 minutes at room temperature, cells are harvested by filtering through a GF/B filter plate (PerkinElmer) followed by washing with ice-cold 1×PBS (without calcium and magnesium) to remove unbound label. […] After correcting for non-specific binding, IC50 values are determined. The IC50 value is defined as the concentration of competing ligand needed to reduce specific binding by 50%. […] The Ki values are determined by application of the Cheng-Prusoff equation to the IC50 values where: […]
See e.g., D. Rodbard, Mathematics and Statistics of Ligand Assays: An Illustrated Guide: In: J. Langon and J. J. Clapp, eds., Ligand Assay, Masson Publishing U.S.A., Inc., New York, pp. 45-99 (1981).

androgen receptor (AR) = target: T2, androgen receptor (AR) (Homo sapiens, UniProt P10275); assay: MDA-MB-453 Androgen Receptor Transactivation Assay; format: cell-based; settings: MDA-MB-453 cells, PSA-Luc reporter, 3 nM DHT, 48 hour incubation
T2 sequence (P10275 1-920): T1 sequence (P10275 1-920 Q868H) with H868Q
Text: Compounds can be tested in a cell based transactivation assay used to measure the antagonism of androgen receptor (AR) transcriptional activity. […] The human breast adenocarcinoma MDA-MB-453 cell line (American Type Culture Collection, Rockville, Md., ATCC#: HTB-131), expressing a functional endogenous wild type AR, was transiently transfected with a reporter plasmid and tested for AR dependent transactivation activity in the absence or presence of test compounds. The pGL3 PSA-Luc reporter plasmid is comprised of the cDNA for the firefly luciferase gene and the upstream promoter sequences containing the androgen response elements (AREs) of the prostate specific antigen (PSA). This plasmid functions as a reporter for the transcription-modulating activity of the AR. In order to detect antagonists, the transactivation assay is conducted in the presence of constant concentration of the natural AR hormone (DHT) to induce a defined reporter signal. Addition of increasing concentrations of the suspected antagonist will decrease the reporter signal (luciferase activity).
MDA-MB-453 and 22 RV1 cells were maintained in DMEM (Cellgro, Cat. #10-014-CM) or RPMI 1640 (Gibco Cat. #11875-085) respectively and supplemented with 10% FBS (Invitrogen/GIBCO Life Science). Cells were bulk transfected in flasks with 1.3 ug/ml pGL3 PSA-Luc plasmid by using the Lipofectamine 2000 Reagent (Invitrogen, Cat. #11668-019) and serum-free Opti-MEM I media (Invitrogen, Cat#31985-070) according to the manufacturer's optimized conditions. Transfection was conducted at 37° C. with 5% CO2 for 16-18 hours. Following transfection, cells are washed, treated with trypsin, counted, and seeded in a 96-well plate at 30,000 cells per well in DMEM containing 10% Charcoal/Dextran Treated Fetal Bovine Serum (Gibco Cat. #11054-020) for MDA-MB-453 cells or RPMI 1640 (Gibco Cat. #110835) containing 10% FBS (Invitrogen/GIBCO Life Science) for 22 RV1 cells.
Following transfection, cells were incubated in the absence (blank) or presence (control) of 3 nM DHT (Sigma, Cat. #A-8380) and in the presence or absence of the standard antiandrogen bicalutamide or test compounds ranging in concentrations from 10^−10 to 10^−5M. Duplicates were used for each sample. The compound dilutions were performed by the Tecan Genesis (Tecan, Triangle Park, N.C.). After a 48 hour incubation, luciferase activity was measured using the Steady-Glo Luciferase Assay System (Promega, Cat. #E2550) according to manufacturer's specifications and luminescence was measured on a Packard TopCount (PerkinElmer). For each luciferase sample reading, the percent control (in absence of compounds) was calculated as: % Control=100×[averagesample−averageblank]/[averagecontrol−averageblank] Data was plotted and the IC50 value was defined as the concentration of compound that inhibited 50% of the luciferase activity for the controls.

SMILES	potency relative to free T (immature castrated rats [1])	EC50 (increase in organ weight) (immature castrated rats [2])	serum concentrations of T and DHT relative to that of TP (immature castrated rats [2]; 2 hours after subcutaneous injection) [times]	Ki (wild type AR) [nM]	IC50 (androgen receptor (AR)) [nM]
CCC(=O)O[C@H]1CC[C@H]2[C@@H]3CCC4=CC(=O)CC[C@]4(C)[C@H]3CC[C@]12C [TP, testosterone propionate]	10-30 fold	~0.03 mg			
C[C@]12CC[C@H]3[C@@H](CCC4=CC(=O)CC[C@@]43C)[C@@H]1CC[C@@H]2O [T, testosterone]		about 1 mg	5		
N#Cc1ccc(N2C[C@@H]3[C@@H]([C@@H]4C=C[C@H]3O4)S2(=O)=O)cc1C(F)(F)F (racemic) [Example 1ii]				29	108
C[C@]12C=C[C@H](O1)[C@@H]1[C@H]2CN(c2ccc(C#N)c(C(F)(F)F)c2)S1(=O)=O (racemic) [Example 21i, rac-4-((1R,2R,6R,7S)-7-methyl-3,3-dioxido-10-oxa-3-thia-4-azatricyclo[5.2.1.0^2,6]dec-8-en-4-yl)-2-(trifluoromethyl)benzonitrile]				173	1160
COC(=O)N[C@H]1C[C@@H]2O[C@H]1[C@H]1CN(c3ccc(C#N)c(C(F)(F)F)c3)S(=O)(=O)[C@H]12 [Example 40i, methyl((1S,2R,6R,7S,8S)-4-(4-cyano-3-(trifluoromethyl)phenyl)-3,3-dioxido-10-oxa-3-thia-4-azatricyclo[5.2.1.0^2,6]dec-8-yl)carbamate]				46	977
